# Data: patent US10780094B2, “Use of carbonic anhydrase inhibitors for treatment of neurological and psychiatric disorders” (New York University, priority 2016, dated 2020)
# How the values were obtained:
# [1] = references (44, 45); cited from earlier work
# mitochondrial CA = conditions: reference (16); cited from earlier work
# SH-SY5Y neuronal cells = experiment: TMRM assay of mitochondrial membrane potential (ΔΨ); format: cell-based, human; conditions: 40 μM FCCP
# Description: (§1) Briefly, cells were plated on 25 mm optical borosilicate poly-L-lysine-coated sterile glass covers (ThermoFisher, Waltham, Mass., US) at a 70% confluence. The day after, cells were washed twice with HBSS and charged with 600 nM TMRM on HBSS. Cells were then incubated for 20 min in the incubator, at 37° C. and washed again with HBSS. After that, the medium was replaced by HBSS containing 150 nM of tetramethylrhodamine methyl ester (TMRM), in order to maintain the equilibrium distribution of the fluorophore. Cells were then mounted on Sykes-Moores chambers (BellCo, Vineland, N.J., US) and treated with the different drugs and/or peptides. An image was taken at minute 0 and at minute 45, after adding the drugs and/or peptides. In this experiment, the peptide was pre-aggregated as above before adding it to the cells.
# [2] = system: D3 cerebral microvascular endothelial cells; experiment: as above; format: cell-based, human; conditions: 40 μM FCCP
# Description: as §1
# D3 cells [3] = experiment: Mitochondrial and cytoplasmic calcium assay (Rhod-2 AM, Fluo-4 AM); format: cell-based, human; conditions: Ionomycin 5 μM at the end of the experiments
# Description: (§2) This assay was performed as published in [60]. Briefly, cells were plated on 25 mm optical borosilicate poly-L-lysine-coated sterile glass covers, (ThermoFisher, Waltham, Mass., US) at a 70% confluence. 24 hours later, cells were loaded with 5 μM Rhod-2 AM or 2.5 μM Fluo-4 AM on HBSS for 45 minutes. Then, cells were washed twice with HBSS and incubated for another additional 15 minutes on fresh HBSS, without Rhod-2 AM or Fluo-4 AM. After that, HBSS was replaced again by fresh HBSS, glasses were mounted on microscopy chambers and experiments were conducted, after adding the pre-aggregated peptides and/or the drugs. Cells were mounted on Sykes-Moores chambers (BellCo, Vineland, N.J., US) and imaged every 15 seconds for 45 min, at a 20× magnification, using a Nikon fluorescent microscope (Chiyoda, Tokyo, Japan). Images were processed using NIS-Elements and ImageJ software. Due to the rapidity of this experiment, the peptide was pre-aggregated as described above to obtain oligomers before being added to the cells.
# SH-SY5Y cells [4] = experiment: as above; format: cell-based, human; conditions: Ionomycin 5 μM at the end of the experiments
# Description: as §2
# D3 cells [5] = experiment: ATP measurement (CellTiter-Glo); format: cell-based, human
# Description: (§3) Steady state levels of ATP were estimated using the Cell Titter-Glo, according to manufacturer's instructions. Briefly, 5×10^3 cells per well of both D3 and SHSY cells were plated on 96-wells plates. The day after, cells were treated with either 10 μM Q22 or 50 μM Ab42 peptides, respectively. Peptides were added alone or in combination with increasing concentrations of MTZ (100 and 300 μM) or AZT (30 and 300 μM). Controls were treated with either DMSO or 5 μM oligomycin. After 3 hours of treatment, the plates containing the cells were equilibrated to room temperature for 30 minutes prior to addition of the luciferin/luciferase/cell lysis mixture. Absolute luminescence from quadruplicate experiments was recorded using a SpectraMax plate reader (Molecular Devices, Sunnyvalem Calif., US).
# SH-SY5Y cells [6] = experiment: ATP measurement (CellTiter-Glo); format: cell-based, human; conditions: oligomycin 5 μM control; p<0.0001
# Description: as §3
# [7] = system: caspase 9 in SH-SY5Y neuronal cells; experiment: Caspase-Glo 9 activity after Aβ challenge; format: cell-based, human; conditions: 10 μM Aβ42; 24 hours; no drug
# Description: (§4) Caspase 9 and caspase 3/7 activation was measured by luminescent assays (Caspase-Glo 9 and caspase-Glo 3/7, Promega, Madison, Wis.), in cells treated with the Aβ peptides in DMEM without FBS. Briefly, 10,000 cells/well were plated in 96 wells plates and incubated for 24 hours with the freshly solubilized Aβ peptides. Caspase-Glo reagent was added to the cell cultures resulting in cell lysis, followed by caspase cleavage of the substrate and generation of a luminescent signal produced by the luciferase reaction. After 40 minutes incubation, the amount of caspase activity was evaluated in a plate-reading luminometer (Synergy HT Multi-Mode Microplate Reader, Biotek, Winooski, Vt.) as described in (Fossati et al., 2012b). To inhibit non-specific background activity, the proteasome inhibitor MG-132 was added to the Caspase-Glo reagent before the experiment as indicated by the manufacturer. In all cases results are expressed as fold-change compared to untreated control cells.
# Cells were plated at a confluence of 10.000 cells per well in 96-wells microplate luminescence microtiter (ThermoFisher, Waltham, Mass., US). The day after, cells were treated with the peptides and/or drugs for the experimental times. After that, caspase-Glo 9 assay was performed, following the protocol provided from the manufacturer. Luminescence was measured using a FlexStation 3 Multi-Mode Microplate Reader (Molecular devices, Sunnyvalem Calif., US).
# caspase 9 in glial cells = experiment: Caspase-Glo 9 activity after Aβ challenge; format: cell-based, human; conditions: 10 μM Aβ42; 24 hours; no drug
# Description: as §4
molecule,measurement,setting,value
"CCOc1ccc2nc(S(N)(=O)=O)sc2c1 [ETZ, ethoxzolamide]",ROS formation and cell death induced by high glucose,[1],inhibit ROS formation and cell death
same,activity on mitochondrial CA,mitochondrial CA,high activity
"N#CC(C#N)=NNc1ccc(OC(F)(F)F)cc1 [FCCP, p-trifluoromethoxyphenylhydrazone]",mitochondrial depolarization after treatment with drugs and peptides,SH-SY5Y neuronal cells,further depolarized
same,mitochondrial depolarization after treatment with drugs and peptides,[2],further depolarized
C[C@H](CCC(=O)O)C[C@H](C)C[C@H](C)C(=O)/C=C(\O)[C@H](C)C[C@H](C)C/C=C/[C@@H](C)[C@@H](O)[C@@H](C)[C@@H](O)C[C@@H]1CC[C@@](C)([C@H]2CC[C@@](C)([C@@H](C)O)O2)O1 [Ionomycin],mitochondrial and cytoplasmic calcium levels,D3 cells [3],increase in mitochondrial and cytoplasmic calcium levels
same,mitochondrial and cytoplasmic calcium levels,SH-SY5Y cells [4],increase in mitochondrial and cytoplasmic calcium levels
CC[C@H]1/C=C/C=C/C[C@@H](C)[C@H](O)[C@@](C)(O)C(=O)[C@@H](C)[C@H](O)[C@@H](C)C(=O)[C@@H](C)[C@H](O)[C@@H](C)/C=C/C(=O)O[C@@H]2[C@H](C)[C@H](CC1)O[C@]1(CC[C@H](C)[C@H](C[C@@H](C)O)O1)[C@H]2C [oligomycin],increase in ATP luminescence,"D3 cells [5]; oligomycin 5 μM, p=0.0002",32.4%
same,decrease in ATP levels,SH-SY5Y cells [6],34%
"Aβ40-Q22: Synthetic Aβ40, the Dutch genetic variant, containing the E22Q substitution",increase in steady state ATP levels,"D3 cells [5]; peptide alone, p=0.001",21.6%
"Aβ42: Synthetic homologue of the amyloid subunit Aβ42, used to challenge cells",caspase 9 activation increase compared to control cells,[7],about 1.5 times
same,caspase 9 activation increase compared to control cells,caspase 9 in glial cells,about 1.5 times
